For one experiment, the system named is NCI-H460. Put plainly: Antitumor activity against human NCI-H460 cells at 0.1 uM assessed as cell growth. Format: functional.
Experiment [1] concerns the target T1, DNA topoisomerase 1 (Homo sapiens) (UniProt P11387).
T1 sequence (whole entry): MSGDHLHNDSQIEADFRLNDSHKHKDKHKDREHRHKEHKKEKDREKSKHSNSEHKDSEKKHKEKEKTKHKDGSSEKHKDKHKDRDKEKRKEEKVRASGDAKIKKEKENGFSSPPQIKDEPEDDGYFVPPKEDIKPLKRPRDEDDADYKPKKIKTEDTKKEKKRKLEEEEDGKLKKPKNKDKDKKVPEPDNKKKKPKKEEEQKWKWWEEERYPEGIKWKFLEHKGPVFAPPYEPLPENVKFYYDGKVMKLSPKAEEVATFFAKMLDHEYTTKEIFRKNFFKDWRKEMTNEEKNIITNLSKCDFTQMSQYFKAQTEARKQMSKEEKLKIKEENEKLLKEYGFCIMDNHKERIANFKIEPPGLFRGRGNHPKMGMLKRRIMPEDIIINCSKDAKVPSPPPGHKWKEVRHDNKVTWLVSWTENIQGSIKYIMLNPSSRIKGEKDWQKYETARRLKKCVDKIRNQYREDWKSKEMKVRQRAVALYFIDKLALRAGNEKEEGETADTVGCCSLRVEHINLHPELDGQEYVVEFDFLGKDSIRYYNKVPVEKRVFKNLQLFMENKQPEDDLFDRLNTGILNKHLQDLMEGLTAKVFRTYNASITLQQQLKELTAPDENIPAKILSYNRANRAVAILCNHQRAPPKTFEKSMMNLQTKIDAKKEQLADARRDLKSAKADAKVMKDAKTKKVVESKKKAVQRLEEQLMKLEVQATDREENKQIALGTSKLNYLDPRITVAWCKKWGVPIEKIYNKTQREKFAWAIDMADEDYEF
Kind of experiment: Inhibition of human topoisomerase 1 by DNA relaxation assay.

The next experiment relates to MDA-MB-435. Put plainly: Growth inhibition of human MDA-MB-435 cells. Format: functional.
In a further experiment the test system is MCF7. Kind of experiment: Antitumor activity against human MCF7 cells at 0.1 uM assessed as cell growth. It counts as functional.
A further experiment relates to UACC-257. Kind of experiment: Growth inhibition of human UACC257 cells. Format: functional.
The subject of a further experiment is SF-268. Kind of experiment: Antitumor activity against human SF268 cells at 0.1 uM assessed as cell growth. It counts as functional.
A short description of experiment [2]: Growth inhibition of human NCI-H322 M cells. Format: functional. The following applies: NCI-H322M.

The results in this text go back to ChEMBL document CHEMBL1147997, “Design, synthesis and biological evaluation of new oligopyrrole carboxamides linked with tricyclic DNA-intercalators as potential DNA ligands or topoisomerase inhibitors” (2007).

A word on the GI50: it is the concentration at which growth is held to half of that of the control.

Active and inactive are the calls of the source. The rule behind the calls is not given here.

On to `CN(C)CCCNC(=O)c1cc(NC(=O)c2cc(NC(=O)CCn3c4ccccc4c(=O)c4ccccc43)cn2C)cn1C`, for which the Activity in the experiment with NCI-H460 is 52%.

`CN(C)CCCNC(=O)c1cc(NC(=O)c2cc(NC(=O)CCCN3C(=O)c4cccc5cccc(c45)C3=O)cn2C)cn1C`: the outcome in experiment [1] was inactive.

With `CN(C)CCCNC(=O)c1cc(NC(=O)c2cc(NC(=O)CCCN3c4ccccc4C=Cc4ccccc43)cn2C)cn1C`, in the experiment on MDA-MB-435, the GI50 was found to be 57.5 µM.

On to `CN(C)CCCNC(=O)c1cc(NC(=O)c2cc(NC(=O)CCNC(=O)c3c4ccccc4nc4ccccc34)cn2C)cn1C`, for which the result in experiment [1] was inactive.

As for `CN(C)CCCNC(=O)c1cc(NC(=O)CCNS(=O)(=O)c2ccc3c(c2)C(=O)c2ccccc2C3=O)cn1C`, the Activity is 1% in the experiment with MCF7, 1% with NCI-H460 and 2% with SF-268. The same molecule yielded a GI50 with UACC-257 of 54.4 µM.

As for `CN(C)CCCNC(=O)c1cc(NC(=O)CCNC(=O)c2ccc3c(c2)C(=O)c2ccccc2C3=O)cn1C`, the results for the Activity in the experiment with MCF7, in the experiment on NCI-H460 and in the experiment with SF-268 were 32%, 103% and 113%, respectively.

As for `CN(C)CCCNC(=O)c1cc(NC(=O)c2cc(NC(=O)CCCN3C(=O)c4cccc5cc([N+](=O)[O-])cc(c45)C3=O)cn2C)cn1C`, in experiment [1], the result was inactive.

Take `CN(C)CCCNC(=O)c1cc(NC(=O)c2cc(NC(=O)CCCn3c4ccccc4c(=O)c4ccccc43)cn2C)cn1C`: the values for the Activity in the experiment with MCF7 and with NCI-H460 were 48% and 47%, respectively. In addition, the outcome in experiment [1] was inactive.

For `CN(C)CCCNC(=O)c1cc(NC(=O)c2cc(NC(=O)Cn3c4ccccc4c(=O)c4ccccc43)cn2C)cn1C`, in experiment [1], the result was inactive.

On to `CN(C)CCCNC(=O)c1cc(NC(=O)c2cc(NC(=O)CCNS(=O)(=O)c3ccc4c(c3)C(=O)c3ccccc3C4=O)cn2C)cn1C`, for which the Activity in the experiment on MCF7 was found to be 27%; in the experiment with NCI-H460, 84%; in the experiment on SF-268, 98%. The molecule also returned a GI50 in experiment [2] of 35.7 µM.
